Experimental findings from ChEMBL document CHEMBL1131672, “6-(1-Hydroxyalkyl))penam sulfone derivatives as inhibitors of class A and class C beta-lactamases II” (Bioorg Med Chem Lett, 1999) are described below.

In assay [1] the test system is Escherichia coli. Description: In vitro inhibitory activity against Escherichia coli. The class given is functional.
Assay [2] addresses Beta-lactamase (Escherichia coli K-12, UniProt P00811). Description: Inhibitory activity against AmpC (class C) beta-lactamase.
The subject of assay [3] is Serratia marcescens. Description: In vitro inhibitory activity against Serratia marcescens. The class given is functional.
In assay [4] the test system is Escherichia coli. The experiment in a line: In vivo inhibitory activity against Escherichia coli in mice. The class given is functional.
For assay [5], the system named is Serratia marcescens. Description: In vivo inhibitory activity against Serratia marcescens in mice. The class given is functional.
The target in assay [6] is Beta-lactamase TEM (Escherichia coli, UniProt P62593). Description: Inhibitory activity against TEM-1 (class A) beta-lactamase.

≈ marks a conversion by molar mass, not a printed value.

Chain of Beta-lactamase (P00811 whole entry): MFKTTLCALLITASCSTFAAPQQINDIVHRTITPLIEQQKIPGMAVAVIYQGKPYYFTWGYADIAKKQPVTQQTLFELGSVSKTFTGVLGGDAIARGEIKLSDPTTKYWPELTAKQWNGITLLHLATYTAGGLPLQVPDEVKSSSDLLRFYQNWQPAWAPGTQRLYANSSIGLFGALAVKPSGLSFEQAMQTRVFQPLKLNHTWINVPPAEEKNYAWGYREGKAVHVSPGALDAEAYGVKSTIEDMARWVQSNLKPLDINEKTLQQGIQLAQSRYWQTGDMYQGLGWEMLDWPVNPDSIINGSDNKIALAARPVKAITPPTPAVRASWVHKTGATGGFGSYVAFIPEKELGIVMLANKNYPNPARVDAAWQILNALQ
Chain of Beta-lactamase TEM (P62593 whole entry): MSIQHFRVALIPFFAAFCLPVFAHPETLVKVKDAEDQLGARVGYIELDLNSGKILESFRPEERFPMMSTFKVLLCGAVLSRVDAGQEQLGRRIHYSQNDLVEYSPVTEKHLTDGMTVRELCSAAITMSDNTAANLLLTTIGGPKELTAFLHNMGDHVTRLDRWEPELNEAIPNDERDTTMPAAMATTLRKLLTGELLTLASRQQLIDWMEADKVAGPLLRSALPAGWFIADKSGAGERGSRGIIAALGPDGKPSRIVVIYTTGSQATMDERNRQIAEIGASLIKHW

Regarding `C[C@]1(/C=C/C#N)[C@H](C(=O)[O-])N2C(=O)[C@@H](CO)[C@H]2S1(=O)=O.[Na+]`, the minimal inhibitory concentration (MIC) in assay [1] came to 16 µg/mL; in assay [3], 4 µg/mL. This compound also had an IC50 in assay [2] of 280 nM.
Regarding `C[C@]1(Cn2ccnn2)[C@H](C(=O)[O-])N2C(=O)[C@@H](CO)[C@H]2S1(=O)=O.[Na+]`, the MIC was found to be 2 µg/mL in assay [1] and 16 µg/mL in assay [3]. Moreover, the 50% effective dose (ED50) in assay [4] worked out at 3.6 mg/kg; in assay [5], 125 mg/kg. Besides, the midpoint of inhibition in assay [6], the IC50, lay at 6 nM.
Consider `CCN1CCN(C(=O)N[C@@H](C(=O)N[C@@H]2C(=O)N3[C@@H]2SC(C)(C)[C@@H]3C(=O)O)c2ccccc2)C(=O)C1=O` [PIPERACILLIN], for which the minimum inhibitory concentration (MIC) in assay [1] was > 64 µg/mL; in assay [3], 32 µg/mL (≈ 61.8 µM). For the same compound, the median effective dose (ED50) is 256 mg/kg in assay [4] and 128 mg/kg in assay [5].
Turning to `C[C@]1(/C=C\C#N)[C@H](C(=O)[O-])N2C(=O)[C@@H](CO)[C@H]2S1(=O)=O.[Na+]`, the MIC in assay [1] amounted to 4 µg/mL; in assay [3], 8 µg/mL. In addition, the ED50 in assay [4] turned out to be 4 mg/kg; in assay [5], 16 mg/kg. The compound also returned a concentration for half-maximal inhibition (IC50) in assay [2] of 270 nM.
Take `CC1(C=CC#N)[C@H](C(=O)O)N2C(=O)C[C@H]2S1(=O)=O` (single isomer, unassigned) [Ro-481220]: the minimum inhibitory concentration (MIC) in assay [1] and in assay [3] was 4 µg/mL (≈ 14.8 µM) throughout. For the same compound, the ED50 was found to be 15 mg/kg in assay [4] and 82 mg/kg in assay [5]. The IC50 in assay [6] was found to be 42 nM; in assay [2] it was 1130 nM.
With `C[C@]1(Cn2ccnn2)[C@H](C(=O)[O-])N2C(=O)C[C@H]2S1(=O)=O.[Na+]` [TAZOBACTAM SODIUM], the MIC worked out at 2 µg/mL in assay [1] and 32 µg/mL in assay [3]. Moreover, the 50% effective dose (ED50) in assay [4] worked out at 7.7 mg/kg; in assay [5] it was 144 mg/kg.
For `CO/N=C/C1(C)[C@H](C(=O)O)N2C(=O)[C@@H](CO)[C@H]2S1(=O)=O` (single isomer, unassigned), the MIC in assay [1] was found to be 8 µg/mL (≈ 26.1 µM); in assay [3] it was 16 µg/mL (≈ 52.2 µM). Besides, the concentration for half-maximal inhibition (IC50) in assay [6] was 64 nM; in assay [2], 280 nM.
